Data reported in PubChem BioAssay (NCI).
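Following 48 hours of exposure in 96-well plates, responses at five concentrations were used to interpolate endpoints linearly. The concentration for 50% growth inhibition is given as GI50. TGI is the concentration that stops growth completely.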

Key:
Assay in all cases: NCI tumour cell line growth inhibition, 48 h
HCT-116 colon = tested on: HCT-116 colon
MCF7 breast = tested on: MCF7 breast
786-0 renal = tested on: 786-0 renal
KM12 colon = tested on: KM12 colon
HOP-62 NSCLC = tested on: HOP-62 NSCLC
MDA-MB-435 = tested on: MDA-MB-435
COLO 205 colon = tested on: COLO 205 colon
HT29 colon = tested on: HT29 colon
M14 melanoma = tested on: M14 melanoma
NCI/ADR-RES ovarian = tested on: NCI/ADR-RES ovarian
MALME-3M melanoma = tested on: MALME-3M melanoma
U251 CNS = tested on: U251 CNS
SK-MEL-2 melanoma = tested on: SK-MEL-2 melanoma
A549 NSCLC = tested on: A549 NSCLC
HL-60(TB) leukemia = tested on: HL-60(TB) leukemia
CCRF-CEM leukemia = tested on: CCRF-CEM leukemia
TK-10 renal = tested on: TK-10 renal
OVCAR-4 ovarian = tested on: OVCAR-4 ovarian
MOLT-4 leukemia = tested on: MOLT-4 leukemia
ACHN renal = tested on: ACHN renal
OVCAR-8 ovarian = tested on: OVCAR-8 ovarian
UACC-62 melanoma = tested on: UACC-62 melanoma
EKVX NSCLC = tested on: EKVX NSCLC
NCI-H460 lung = tested on: NCI-H460 lung
RPMI-8226 leukemia = tested on: RPMI-8226 leukemia
NCI-H522 lung = tested on: NCI-H522 lung
SW-620 colon = tested on: SW-620 colon
RXF 393 renal = tested on: RXF 393 renal
IGROV1 ovarian = tested on: IGROV1 ovarian
MDA-MB-468 breast = tested on: MDA-MB-468 breast

O=C(CSc1nc2ccccc2c(=O)n1-c1ccc(Cl)cc1)Nc1ccc(-c2nc3ccc([N+](=O)[O-])cc3[nH]2)cc1
GI50 (HCT-116 colon): 2.9 µM
TGI (HCT-116 colon): > 100 µM
GI50 (MCF7 breast): 1.18 µM
TGI (MCF7 breast): 5.09 µM
GI50 (786-0 renal): 2.91 µM
TGI (786-0 renal): 8.4 µM
GI50 (KM12 colon): 10.2 µM
TGI (KM12 colon): > 100 µM
GI50 (HOP-62 NSCLC): 1.26 µM
TGI (HOP-62 NSCLC): 3 µM
GI50 (MDA-MB-435): 2.98 µM
TGI (MDA-MB-435): 13.1 µM
GI50 (COLO 205 colon): 2.34 µM
TGI (COLO 205 colon): 6.07 µM
GI50 (HT29 colon): 2.83 µM
TGI (HT29 colon): 11.4 µM
GI50 (M14 melanoma): 2.32 µM
TGI (M14 melanoma): 8.05 µM
GI50 (NCI/ADR-RES ovarian): 5.29 µM
TGI (NCI/ADR-RES ovarian): > 100 µM
GI50 (MALME-3M melanoma): 2.18 µM
TGI (MALME-3M melanoma): 7.44 µM
GI50 (U251 CNS): 1.59 µM
TGI (U251 CNS): 3.58 µM
GI50 (SK-MEL-2 melanoma): 1.95 µM
TGI (SK-MEL-2 melanoma): 5.31 µM
GI50 (A549 NSCLC): 1.88 µM
TGI (A549 NSCLC): 6.81 µM
GI50 (HL-60(TB) leukemia): 28.1 µM
TGI (HL-60(TB) leukemia): > 100 µM
GI50 (CCRF-CEM leukemia): 13.5 µM
TGI (CCRF-CEM leukemia): > 100 µM
GI50 (TK-10 renal): 3.61 µM
TGI (TK-10 renal): 20.5 µM
GI50 (OVCAR-4 ovarian): 1.59 µM
TGI (OVCAR-4 ovarian): 5.11 µM
GI50 (MOLT-4 leukemia): 3.21 µM
TGI (MOLT-4 leukemia): > 100 µM
GI50 (ACHN renal): 3.1 µM
TGI (ACHN renal): 21.2 µM
GI50 (OVCAR-8 ovarian): 1.08 µM
TGI (OVCAR-8 ovarian): 2.75 µM
GI50 (UACC-62 melanoma): 1.76 µM
TGI (UACC-62 melanoma): 4.78 µM
GI50 (EKVX NSCLC): 1.91 µM
TGI (EKVX NSCLC): 5.7 µM
GI50 (NCI-H460 lung): 1.56 µM
TGI (NCI-H460 lung): 3.9 µM
GI50 (RPMI-8226 leukemia): 4.4 µM
TGI (RPMI-8226 leukemia): > 100 µM
GI50 (NCI-H522 lung): 1.82 µM
TGI (NCI-H522 lung): 4.65 µM
GI50 (SW-620 colon): 3.52 µM
TGI (SW-620 colon): 74.1 µM
GI50 (RXF 393 renal): 1.5 µM
TGI (RXF 393 renal): 3.69 µM
GI50 (IGROV1 ovarian): 1.87 µM
TGI (IGROV1 ovarian): 5 µM
GI50 (MDA-MB-468 breast): 1.4 µM
